What was measured:
Assay type in all cases: in vivo
[1] = system: blackgrass (Alopecurus myosuroides); assay: Test A pre-/postemergence plant response
Outline: (§1)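 Greenhouse pot test: loam–sand soil; pre- and postemergence sprays applied same day; post plants 2–10 cm, 1–2 leaves. Readout ~10 d, visual % injury vs untreated (0 = none, 100 = complete control).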

[2] = system: canarygrass (Phalaris minor); assay: Test A pre-/postemergence plant response
Outline: as §1

canola (Brassica rapa) = assay: Test C pre-/postemergence plant response
Outline: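 Formulated in a surfactant-containing non-phytotoxic solvent, compounds were tested under controlled growth conditions as preemergence and postemergence treatments. Ratings from 0 (no effect) to 100 (complete control) were assigned visually relative to controls 15 to 25 days later.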

[3] = system: tropical (T.) spiderwort (Commelina benghalensis); assay: Test E pre-/postemergence plant response; settings: scale 0 to 100
Outline: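 Plant response was judged by eye relative to controls, 0 meaning no effect and 100 complete control, after 14 to 21 days under greenhouse conditions. Compound was formulated in a non-phytotoxic solvent mixture with surfactant.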

[4] = Postemergence, 31 g ai/ha, 0 to 100 scale (0 no effect, 100 complete control)
[5] = Postemergence, 125 g ai/ha, 0 to 100 scale, 0 no effect, 100 complete control
[6] = Preemergence, 31 g ai/ha, 0 to 100 scale, 0 is no effect, 100 is complete control
[7] = Preemergence, 125 g ai/ha, 0 to 100 scale (0 no effect, 100 complete control)
[8] = Preemergence, 8 g ai/ha, scale 0 to 100 (0 no effect, 100 complete control)
[9] = Preemergence, 16 g ai/ha, scale 0 to 100 (0 no effect, 100 complete control)
[10] = Preemergence, 31 g ai/ha, scale 0 to 100 (0 no effect, 100 complete control)
[11] = Preemergence, 62 g ai/ha, scale 0 to 100, 0 no effect, 100 complete control
[12] = Postemergence, 8 g ai/ha, scale 0 to 100, 0 no effect, 100 complete control
[13] = Postemergence, 16 g ai/ha, scale 0 to 100, 0 no effect, 100 complete control
[14] = Postemergence, 31 g ai/ha, scale 0 to 100, 0 no effect, 100 complete control
[15] = Postemergence, 62 g ai/ha, scale 0 to 100, 0 no effect, 100 complete control

Row | SMILES | Plant response rating, Blackgrass [1, 4] | Plant response rating, Blackgrass [1, 5] | Plant response rating, Blackgrass [1, 6] | Plant response rating, Blackgrass [1, 7] | Plant response rating, Canarygrass [2, 4] | Plant response rating, Canarygrass [2, 5] | Plant response rating, Canarygrass [2, 7] | Plant response rating, Canola (canola (Brassica rapa); [8]) | Plant response rating, Canola (canola (Brassica rapa); [10]) | Plant response rating, Canola (canola (Brassica rapa); [11]) | also measured
1 | Cc1cc(-c2ccc(Br)cc2)nn1-c1c(O)cn[nH]c1=O [Compound 78, 4-[3-(4-bromophenyl)-5-methyl-1H-pyrazol-1-yl]-5-hydroxy-3(2H)-pyridazinone] | 90 | 100 | 0 | 100 | 40 | 70 | 100 | – | – | – | Plant response rating, Canarygrass [2, 6]: 0
2 | Cc1cc(-c2ccc(Br)cc2)nn1-c1c(OC(=O)C2CC2)cnn(C(=O)C2CC2)c1=O [Compound 80, 5-[3-(4-bromophenyl)-5-methyl-1H-pyrazol-1-yl]-1-(cyclopropylcarbonyl)-1,6-dihydro-6-oxo-4-pyridazinyl cyclopropanecarboxylate] | 30 | 100 | 70 | 100 | 40 | 100 | 100 | – | – | – | Plant response rating, Canarygrass [2, 6]: 60
3 | Cc1cn(-c2ccc(Cl)cc2)nc1-c1c(O)cnn(C)c1=O [Compound 30, 4-[1-(4-chlorophenyl)-4-methyl-1H-pyrazol-3-yl]-5-hydroxy-2-methyl-3(2H)-pyridazinone] | – | – | – | – | – | – | – | 0 | 0 | 0 | Plant response rating, Canola (canola (Brassica rapa); [9]): 0
4 | Cn1ncc(O)c(-c2nn(-c3ccc(Cl)cc3)cc2Cl)c1=O [Compound 28] | – | – | – | – | – | – | – | 0 | 0 | 0 | Plant response rating, Canola (canola (Brassica rapa); [9]): 0
5 | Cc1nn(C)c(=O)c(-n2nc(-c3ccc(C(F)(F)F)cc3)cc2C)c1O [Compound 75, 5-hydroxy-2,6-dimethyl-4-[5-methyl-3-[4-(trifluoromethyl)phenyl]-1H-pyrazol-1-yl]-3(2H)-pyridazinone] | 40 | 90 | 40 | 80 | 10 | 80 | 80 | – | – | – | Plant response rating, Canarygrass [2, 6]: 10
6 | CCc1c(C)c(-c2ccc(Cl)cc2)nn1-c1c(O)cnn(C)c1=O [Compound 26, 4-[3-(4-chlorophenyl)-5-ethyl-4-methyl-1H-pyrazol-1-yl]-5-hydroxy-2-methyl-3(2H)-pyridazinone] | – | – | – | – | – | – | – | – | 0 | 0 | Plant response rating, Canola (canola (Brassica rapa); [12]): 0; Plant response rating, Canola (canola (Brassica rapa); [13]): 0; Plant response rating, Canola (canola (Brassica rapa); [14]): 0; Plant response rating, Canola (canola (Brassica rapa); [15]): 0
7 | Cc1cc(-c2ccc(Cl)cc2)nn1-c1c(OS(C)(=O)=O)cnn(C)c1=O [Compound 36] | – | – | – | – | – | – | – | – | – | – | Plant response rating, Spiderwort, T. ([3]; 16 g ai/ha, Preemergence): 0; Plant response rating, Spiderwort, T. ([3]; 31 g ai/ha, Preemergence): 0; Plant response rating, Spiderwort, T. ([3]; 62 g ai/ha, Preemergence): 0; Plant response rating, Spiderwort, T. ([3]; Postemergence, 8 g ai/ha): 0; Plant response rating, Spiderwort, T. ([3]; Postemergence, 16 g ai/ha): 0; Plant response rating, Spiderwort, T. ([3]; Postemergence, 31 g ai/ha): 0; Plant response rating, Spiderwort, T. ([3]; Postemergence, 62 g ai/ha): 0
8 | Cc1cc(-c2ccc(Cl)cc2)nn1-c1c(OC(=O)OCC(C)C)cnn(C)c1=O [Compound 57] | – | – | – | – | – | – | – | 0 | – | 0 | Plant response rating, Canola (canola (Brassica rapa); [12]): 0; Plant response rating, Canola (canola (Brassica rapa); [13]): 0; Plant response rating, Canola (canola (Brassica rapa); [14]): 0; Plant response rating, Canola (canola (Brassica rapa); [15]): 0
9 | COCc1cc(-c2ccc(Br)cc2)nn1-c1c(O)cnn(C)c1=O [Compound 68] | 0 | 80 | 0 | 50 | 0 | 40 | 20 | – | – | – | Plant response rating, Canarygrass [2, 6]: 0
10 | Cc1nn(C)c(=O)c(-n2nc(-c3ccc(Br)cc3)cc2C)c1O [Compound 81] | 100 | 100 | 70 | 100 | 60 | 100 | 90 | – | – | – | Plant response rating, Canarygrass [2, 6]: 50
11 | Cc1cc(-c2ccc(Cl)cc2)nn1-c1c(OC(=S)N(C)C)cnn(C)c1=O [Compound 69] | 10 | 60 | 20 | 40 | 0 | 80 | 80 | – | – | – | –
12 | CCc1cc(-c2ccc(Cl)cc2)nn1-c1c(OS(C)(=O)=O)cnn(C)c1=O [Compound 39] | – | – | – | – | – | – | – | – | – | – | Plant response rating, Spiderwort, T. ([3]; 16 g ai/ha, Preemergence): 0; Plant response rating, Spiderwort, T. ([3]; 31 g ai/ha, Preemergence): 0; Plant response rating, Spiderwort, T. ([3]; 62 g ai/ha, Preemergence): 0; Plant response rating, Spiderwort, T. ([3]; Postemergence, 8 g ai/ha): 0; Plant response rating, Spiderwort, T. ([3]; Postemergence, 16 g ai/ha): 0; Plant response rating, Spiderwort, T. ([3]; Postemergence, 31 g ai/ha): 0; Plant response rating, Spiderwort, T. ([3]; Postemergence, 62 g ai/ha): 0
13 | CCc1cc(-c2ccc(F)cc2)nn1-c1c(O)cnn(C)c1=O [Compound 25] | – | – | – | – | – | – | – | 0 | 0 | 0 | Plant response rating, Canola (canola (Brassica rapa); [12]): 0; Plant response rating, Canola (canola (Brassica rapa); [13]): 0; Plant response rating, Canola (canola (Brassica rapa); [14]): 0; Plant response rating, Canola (canola (Brassica rapa); [15]): 0; Plant response rating, Canola (canola (Brassica rapa); [9]): 0
14 | CCc1cc(-c2ccc(Cl)c(Cl)c2)nn1-c1c(O)cnn(C)c1=O [Compound 20] | – | – | – | – | – | – | – | – | – | – | Plant response rating, Canola (canola (Brassica rapa); [12]): 0; Plant response rating, Canola (canola (Brassica rapa); [13]): 0; Plant response rating, Canola (canola (Brassica rapa); [14]): 0; Plant response rating, Canola (canola (Brassica rapa); [15]): 0
15 | CCc1cc(-c2ccc(Cl)cc2)nn1-c1c(OC(=O)OC(C)C)cnn(C)c1=O [Compound 41] | – | – | – | – | – | – | – | 0 | 0 | 0 | Plant response rating, Canola (canola (Brassica rapa); [9]): 0
16 | COC(=O)Oc1cnn(C)c(=O)c1-n1nc(-c2ccc(Cl)cc2)cc1C [Compound 33] | – | – | – | – | – | – | – | 0 | 0 | 0 | Plant response rating, Canola (canola (Brassica rapa); [9]): 0; Plant response rating, Spiderwort, T. ([3]; 16 g ai/ha, Preemergence): 0; Plant response rating, Spiderwort, T. ([3]; 31 g ai/ha, Preemergence): 0; Plant response rating, Spiderwort, T. ([3]; 62 g ai/ha, Preemergence): 0; Plant response rating, Spiderwort, T. ([3]; Postemergence, 8 g ai/ha): 0; Plant response rating, Spiderwort, T. ([3]; Postemergence, 16 g ai/ha): 0; Plant response rating, Spiderwort, T. ([3]; Postemergence, 62 g ai/ha): 0
17 | Cn1ncc(O)c(-c2nn(-c3ccc(Cl)cc3)cc2Br)c1=O [Compound 31] | – | – | – | – | – | – | – | – | – | – | Plant response rating, Spiderwort, T. ([3]; 16 g ai/ha, Preemergence): 0; Plant response rating, Spiderwort, T. ([3]; 31 g ai/ha, Preemergence): 0; Plant response rating, Spiderwort, T. ([3]; 62 g ai/ha, Preemergence): 0; Plant response rating, Spiderwort, T. ([3]; Postemergence, 8 g ai/ha): 0; Plant response rating, Spiderwort, T. ([3]; Postemergence, 16 g ai/ha): 0; Plant response rating, Spiderwort, T. ([3]; Postemergence, 31 g ai/ha): 0; Plant response rating, Spiderwort, T. ([3]; Postemergence, 62 g ai/ha): 0
18 | CCc1cc(-c2ccc(Cl)cc2)nn1-c1c(OC(=O)C(C)(C)C)cnn(C)c1=O [Compound 40] | – | – | – | – | – | – | – | – | – | – | Plant response rating, Spiderwort, T. ([3]; 16 g ai/ha, Preemergence): 0; Plant response rating, Spiderwort, T. ([3]; 31 g ai/ha, Preemergence): 0; Plant response rating, Spiderwort, T. ([3]; 62 g ai/ha, Preemergence): 0; Plant response rating, Spiderwort, T. ([3]; Postemergence, 8 g ai/ha): 0; Plant response rating, Spiderwort, T. ([3]; Postemergence, 16 g ai/ha): 0; Plant response rating, Spiderwort, T. ([3]; Postemergence, 31 g ai/ha): 0; Plant response rating, Spiderwort, T. ([3]; Postemergence, 62 g ai/ha): 0

— patent US20100267561A1, “HERBICIDAL PYRIDAZINONE DERIVATIVES” (priority 2007, published 2010)
